{"source": "the NIST ThermoML archive (doi:10.1016/j.jct.2019.02.006)", "conditions": "Liquid, Ebulliometric method (Recirculating still)", "note": "Numbers after ± are expanded uncertainties."}
{"molecule": "CCCCCCC", "note": "[heptane]", "values": [{"measurement": "vapor or sublimation pressure", "setting": "371.53 K", "value": "101.3 ± 5.1", "unit": "kPa"}]}
{"molecule": "COC(=O)CCCC(=O)OC", "note": "[dimethyl pentanedioate]", "values": [{"measurement": "vapor or sublimation pressure", "setting": "376.09 K", "value": "2 ± 0.3", "unit": "kPa"}, {"measurement": "vapor or sublimation pressure", "setting": "395.8 K", "value": "5.2 ± 0.3", "unit": "kPa"}, {"measurement": "vapor or sublimation pressure", "setting": "407.11 K", "value": "8.3 ± 0.3", "unit": "kPa"}]}
{"molecule": "COC(=O)CCCCC(=O)OC", "note": "[dimethyl 1,6-hexanedioate]", "values": [{"measurement": "vapor or sublimation pressure", "setting": "390.98 K", "value": "2 ± 0.3", "unit": "kPa"}, {"measurement": "vapor or sublimation pressure", "setting": "410.82 K", "value": "5.2 ± 0.3", "unit": "kPa"}, {"measurement": "vapor or sublimation pressure", "setting": "422.47 K", "value": "8.3 ± 0.3", "unit": "kPa"}]}
{"molecule": "C1CCCCC1", "note": "[cyclohexane]", "values": [{"measurement": "vapor or sublimation pressure", "setting": "353.94 K", "value": "101.3 ± 5.1", "unit": "kPa"}]}
{"molecule": "COC(=O)CCC(=O)OC", "note": "[dimethyl 1,4-butanedioate]", "values": [{"measurement": "vapor or sublimation pressure", "setting": "363.39 K", "value": "2 ± 0.3", "unit": "kPa"}, {"measurement": "vapor or sublimation pressure", "setting": "382.13 K", "value": "5.2 ± 0.3", "unit": "kPa"}, {"measurement": "vapor or sublimation pressure", "setting": "393.49 K", "value": "8.3 ± 0.3", "unit": "kPa"}]}
